Laboratory results from patent US20240207228A1, “A COMBINATION COMPRISING A SPECIFIC HDAC6 INHIBITOR AND AT LEAST ONE CTLA4 CHECKPOINT INHIBITOR” (ITALFARMACO SPA, priority 2021, published 2024).

Experiments:
[1] = system: mouse colon carcinoma cell line CT26; test: Anti-tumor effect in the CT26 murine model (tumor growth inhibition from tumor nodule volume/weight); type: in vivo; set-up: key to Statistical significance vs Control group on day 10 / Statistical significance vs Control group on day 12 / Statistical significance vs Control group on day 14 / Statistical significance vs Control group on day 17 / Statistical significance vs Control group on day 19 / Statistical significance vs Control group on day 21 / Statistical significance vs Control group on day 24: n.s.: not significant; *: p < 0.05; **: p < 0.01; conditions: for Statistical significance vs Control group on day 10 / Statistical significance vs Control group on day 12 / Statistical significance vs Control group on day 14 / Statistical significance vs Control group on day 17 / Statistical significance vs Control group on day 19 / Statistical significance vs Control group on day 21 / Statistical significance vs Control group on day 24: CT26 tumor growth
Description: The anti-tumor efficacy of ITF3756, administered in combination with anti-CTLA4 antibody, has been determined using a murine model based on the use of the mouse colon carcinoma cell line CT26. In this model, the CT26 cells are implanted subcutaneously to syngeneic mice and the efficacy is determined as tumor growth inhibition on the basis of the volume of the tumor nodule.
ITF3756 was synthetized by the Medicinal Chemistry Dept. of Italfarmaco SpA. ITF3756, batch 5, as powder was solubilized in DMSO and stored at −20° C. On each day of administration, the solution was diluted with H2O/PEG 400 1:1 to obtain a final solution of H2O/PEG 400 1:1 in DMSO 0.5% at 2.5 and 5.0 mg/mL.
The solutions were administered orally by using gavage needles for mice, in a volume of 200 μL (final doses 25 and 50 mg/Kg).
ITF3756 administration started when the tumor nodules were palpable (around day 10 from cells inoculation).
Syrian hamster IgG Mab anti-mouse CTLA4 was purchased from BioXell (cat. BE0131, clone 9H10), diluted with PBS at 1, 0.3 and 0.1 mg/mL final concentration and stored at +4° C. Each mouse was treated with 200 μL of the respective solution (final doses 10.0, 3.0 and 1.0 mg/Kg).
Anti-CTLA4 Mab administration started when the tumor nodules were palpable (around day 10 from cells inoculation). Anti-CTLA4 was administered intraperitoneally (ip) once a day on alternate days for a total of 4 treatments, followed by 7 days of wash-out, as reported in table 1. This treatment cycle continued up to the end of the study.
Female 6 weeks old BALB/c mice were purchased from Charles River Italia and maintained with food and water ad libitum, under light-dark cycle of 12 hours.
After 5 days of acclimatization, the mice were submitted to tumor cells injection.
CT26 (murine BALB/c colon carcinoma, CT26.WT ATCC CRL-2638) cells were grown in RPMI 1640 cell culture medium+10% fetal calf serum (FCS).
The cells were detached, during the exponential phase, with trypsin, washed with the culture medium without FCS and suspended at 5×10^6 cells/mL final concentration.
The cells (1×10^6 cells/mouse) were injected s.c. in the inguinal region of the right flank of the mice in a volume of 200 μL.
When the tumor nodule was palpable in at least 80% of the animals, the mice were randomized in the following experimental groups and drugs administration was started.
Body weight was measured on alternate days, starting from the first day of drug administration.
The volume of subcutaneous tumor nodules was determined on alternate days, according to the following formula (Papagiannoros A. et al. in vivo 20:129-136, 2006):
where D=major diameter of the nodule and d=minor diameter of the nodule.
The weight of the tumor nodule was determined by the tumor volume considering a tumor density of 1.05 g/mL (Jensen M. M. et al. BMC Medical Imaging 8(16), 2008).
The animals were euthanized when the tumor weight was equal to the 10% of body weight or the tumor nodules were ulcerated (humane end-points).
The statistical analysis of the drugs effect was carried out by 2-way ANOVA with Dunnett's multiple comparisons test using GraphPad Prism 8 software.

[2] = system: female NOD mice; test: Diabetes induction in female NOD mice (glycemia); type: in vivo; conditions: day 0-21, ITF3756 50 mg/kg os 3x/day, antibodies 500 μg (d0) + 250 μg/mouse ip, diabetes = glucose >250 mg/dL two consecutive days
Description: NOD mice spontaneously developed diabetes and they represent a widely accepted spontaneous model of Type 1 diabetes mellitus (Pearson et al., 2016, Journal of Autoimmunity 66, 76-88).
ITF3756 was synthetized by the Medicinal Chemistry Dept. of Italfarmaco SpA. ITF3756, batch 9, as powder was solubilized in DMSO and stored at −20° C.
Antibody treatment was according to Ansari (Ansari et al., 2003, The Journal of experimental medicine 1 98, 63-69)
Glycemia was evaluated in all mice for 3 weeks from day 0 (start treatment) until day 21 (end of study). Blood glucose levels were measured by glucometer One Touch® Verio. Blood samples were drawn from the tail vein by a prick with a needle. A drop of blood was inserted in a test strip and glucometer automatically calculated the glucose level. Results were shown in the display of the instrument. The instrument measures from 20 to 600 mg/dL. Results below 20 or above 600 mg/dL are visualized by the instrument as “below 20” or “above 600”.
Diabetes was defined by blood glucose reading of >250 mg/dL for two consecutive days.
Mice were monitored for 3 weeks; during this time, body weight was measured 7 times.

[3] = system: 4T1 triple negative breast cancer; test: 4T1 breast cancer model, previous experiments with single agents; type: in vivo, mouse; conditions: each drug as single agent
Description: […] mice challenged with syngeneic tumor cell line 4T1 triple negative breast cancer are used.
4T1 tumor model is considered a poorly immunogenic tumor (Demaria et al., Clin. Cancer Res. 11, 728-734, 2005).
ITF3756 is used at the same dosage used for the treatment of CT26 colon cancer, namely 50 mg/kg (mpk) TID as single agent and in combination with anti CTLA-4 antibody. The latter is administered at 3 mpk 3 times a week on alternate days.
Tumor growth is induced after subcutaneous injection of cell line and mice are monitored for at least three weeks post-injection.

[4] = system: PD-L1; test: Cytokine-induced PD-L1 expression in human monocytes stimulated in vitro; type: cell-based
[5] = system: PD-L1; test: PD-L1 expression in mouse immune cells in vivo; conditions: ITF3756 50 mg/Kg three times a day
[6] = Mean level in 24 hours after the efficacious schedule in the mouse; type: in vivo; conditions: administration schedule that had shown efficacy, used as target for projected doses
Description: The human doses for ITF3756 were predicted using a physiologically based pharmacokinetic (PBPK) model, through the use of the software GastroPlus™ (Simulation Plus, Lancaster, CA). The target Caverage for projected doses was 200 ng/mL, mean level in 24 hours found after the administration schedule that had shown efficacy in the mouse.

Which “Statistical significance vs Control group on day 10” value ([1]; ITF3756 25 mg/Kg) does the source give for `O=C(NO)c1ccc(Cn2nnnc2-c2cccs2)cc1` [ITF3756, N-hydroxy-4-((5-(thiophen-2-yl)-1H-tetrazol-1-yl)methyl)benzamide] here?
Its value is “n.s”.

What about the “Statistical significance vs Control group on day 12” value ([1]; ITF3756 25 mg/Kg) of the same molecule?
The value was “n.s”.

What about the “Statistical significance vs Control group on day 14” value ([1]; ITF3756 25 mg/Kg) of the same molecule?
Its value is “n.s”.

What about the “Statistical significance vs Control group on day 17” value ([1]; ITF3756 25 mg/Kg) of the same molecule?
The value was “n.s”.

And the “Statistical significance vs Control group on day 19” value ([1]; ITF3756 25 mg/Kg)?
The value was “n.s”.

What about the “Statistical significance vs Control group on day 21” value ([1]; ITF3756 25 mg/Kg) of the same molecule?
Its value is “n.s”.

What about the “Statistical significance vs Control group on day 24” value ([1]; ITF3756 25 mg/Kg) of the same molecule?
The value was “n.s”.

And the “Statistical significance vs Control group on day 10” value ([1]; ITF3756 50 mg/Kg)?
The value was “n.s”.

What about the “Statistical significance vs Control group on day 12” value ([1]; ITF3756 50 mg/Kg) of the same molecule?
Its value is “n.s”.

And the “Statistical significance vs Control group on day 14” value ([1]; ITF3756 50 mg/Kg)?
Its value is “n.s”.

And the “Statistical significance vs Control group on day 17” value ([1]; ITF3756 50 mg/Kg)?
Its value is “n.s”.

What about the “Statistical significance vs Control group on day 19” value ([1]; ITF3756 50 mg/Kg) of the same molecule?
Its value is “n.s”.

And the “Statistical significance vs Control group on day 21” value ([1]; ITF3756 50 mg/Kg)?
Its value is “* (p < 0.05)”.

What about the “Statistical significance vs Control group on day 24” value ([1]; ITF3756 50 mg/Kg) of the same molecule?
Its value is “n.s”.

What about the “Statistical significance vs Control group on day 10” value ([1]; ITF3756 50 mg/Kg x3) of the same molecule?
Its value is “n.s”.

And the “Statistical significance vs Control group on day 12” value ([1]; ITF3756 50 mg/Kg x3)?
The value was “n.s”.

And the “Statistical significance vs Control group on day 14” value ([1]; ITF3756 50 mg/Kg x3)?
Its value is “n.s”.

And the “Statistical significance vs Control group on day 17” value ([1]; ITF3756 50 mg/Kg x3)?
Its value is “n.s”.

And the “Statistical significance vs Control group on day 19” value ([1]; ITF3756 50 mg/Kg x3)?
Its value is “* (p < 0.05)”.

What about the “Statistical significance vs Control group on day 21” value ([1]; ITF3756 50 mg/Kg x3) of the same molecule?
The value was “** (p < 0.01)”.

What about the “Statistical significance vs Control group on day 24” value ([1]; ITF3756 50 mg/Kg x3) of the same molecule?
The value was “** (p < 0.01)”.

What about the “inhibition of tumor growth” value ([1]; ITF3756 25 mg/Kg orally once a day, day 24) of the same molecule?
Its value is 7%.

What about the tumor weight ([1]; ITF3756 25 mg/Kg orally once a day, day 24, control 1.89 g) of the same molecule?
The tumor weight was 1.76 g.

What about the “inhibition of tumor growth” value ([1]; ITF3756 25 mg/Kg orally once a day, entire experimental period) of the same molecule?
The value was “did not show a significant inhibition of tumor growth”.

What about the “inhibition of tumor growth” value ([1]; ITF3756 50 mg/Kg orally 3 times a day, day 24) of the same molecule?
The value was 30%.

And the tumor weight ([1]; ITF3756 50 mg/Kg orally 3 times a day, day 24, control 1.89 g)?
Its tumor weight is 1.32 g.

And the “inhibition of tumor growth” value ([1]; ITF3756 50 mg/Kg orally once a day, day 21)?
Its value is 34%.

What about the tumor weight ([1]; ITF3756 50 mg/Kg orally once a day, day 21, control 1.34 g) of the same molecule?
Its tumor weight is 0.88 g.

What about the “inhibition of tumor growth” value ([1]; ITF3756 50 mg/Kg orally once a day, day 24) of the same molecule?
The value was 9%.

And the tumor weight ([1]; ITF3756 50 mg/Kg orally once a day, day 24, control 1.89 g)?
The tumor weight was 1.72 g.

What about the induction of diabetes [2] of the same molecule?
Its induction of diabetes is “did not accelerates the induction of autoimmune diabetes”.

And the “average reduction of tumor growth” value [3]?
Its value is “approximately 40%”.

And the “cytokine-induced expression of PD-L1” value [4]?
The value was “decreases”.

What about the PD-L1 expression [5] of the same molecule?
Its PD-L1 expression is “decreased”.

What about the “Caverage, mean level in 24 hours” value [6] of the same molecule?
Its value is 200 ng/mL.
